Measurements reported in article PMC11190208, “Bacterial c-di-GMP triggers metamorphosis of mussel larvae through a STING receptor” (NPJ Biofilms and Microbiomes, 2024).

Biological target: T1, McSTING (Mytilus coruscus, UniProt A0A7U0FWW1)
T1 construct: gene STING-3; full-length 1-716aa, pColdIII vector, expressed in E. coli Rosetta
Experiment: SPR (OpenSPR, McSTING immobilised on COOH chip)
Assay type: binding
Text: SPR (OpenSPR, McSTING immobilised on COOH chip) on McSTING | concentration-dependent binding of the recombinant protein McSTING to synthetic c-di-GMP with a KD of […]

T1 sequence (A0A7U0FWW1 entry or part of it): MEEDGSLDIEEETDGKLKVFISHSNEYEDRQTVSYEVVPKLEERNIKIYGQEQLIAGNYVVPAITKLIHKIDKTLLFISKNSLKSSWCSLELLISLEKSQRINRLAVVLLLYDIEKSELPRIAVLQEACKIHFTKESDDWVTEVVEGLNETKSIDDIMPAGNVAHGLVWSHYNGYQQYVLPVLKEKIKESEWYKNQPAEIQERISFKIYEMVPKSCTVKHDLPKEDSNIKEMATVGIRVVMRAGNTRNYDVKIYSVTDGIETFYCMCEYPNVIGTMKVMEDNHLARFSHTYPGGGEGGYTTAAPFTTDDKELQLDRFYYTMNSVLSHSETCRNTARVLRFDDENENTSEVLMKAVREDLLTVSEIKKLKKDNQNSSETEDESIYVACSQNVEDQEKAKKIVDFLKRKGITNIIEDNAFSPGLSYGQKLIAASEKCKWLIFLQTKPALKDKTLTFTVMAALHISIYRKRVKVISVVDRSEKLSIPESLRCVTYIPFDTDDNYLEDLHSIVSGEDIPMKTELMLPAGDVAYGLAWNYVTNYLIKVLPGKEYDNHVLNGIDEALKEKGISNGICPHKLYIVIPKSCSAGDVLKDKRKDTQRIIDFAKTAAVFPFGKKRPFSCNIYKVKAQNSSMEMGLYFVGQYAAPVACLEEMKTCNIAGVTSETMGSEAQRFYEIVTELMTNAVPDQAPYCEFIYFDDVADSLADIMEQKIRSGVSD

## Nc1nc2c(ncn2[C@@H]2O[C@@H]3CO[P@](=O)(O)O[C@H]4[C@@H](O)[C@H](n5cnc6c(=O)[nH]c(N)nc65)O[C@@H]4CO[P@](=O)(O)O[C@H]3[C@H]2O)c(=O)[nH]1 [c-di-GMP]
  Kd: 42.7 µM
